Results on 6 molecules are retold here after patent US8029920B2, “1,3,5-tris(diarylamino)benzenes and use thereof” (Bando Chemical Industries, Ltd, priority 2006, dated 2011).

The conditions of data set [1]: prior art, JP-A-2004-155754; cited from earlier work.
A short description of data set [2]: Differential scanning calorimetry (DSC), glass transition temperature. It is filed as physicochemical. The source says:
Differential Scanning Calorimetry (DSC):
(§1) The compound (3) is excellent in heat resistance.
The compound is excellent in heat resistance.

Data set [3] in a line: Thermogravimetric measurement/differential thermal analysis (TG/DTA). Format: physicochemical. The protocol:
Thermogravimetric Measurement/Differential Thermal Analysis (TG/DTA):
as §1
(§2) The residual on the vacuum evaporation boat before and after vacuum evaporation of the compound (3) was analyzed by high performance liquid chromatography, showing that the residual on the vacuum evaporation boat before and after vacuum evaporation was in fact found to have a purity of 100.00%.
(§3) In contrast, the compound (2) starts decomposition at a temperature of 412° C. as shown by the TG/DTA measurement. Since the temperature is close to the above-mentioned vacuum evaporation temperature (415° C.), it is expected that the compound (2) is accompanied by thermal decomposition at the vacuum evaporation temperature.
The compound (4) is excellent in heat resistance.

The next data set is described as follows: Cyclic voltammetry (CV). It is filed as physicochemical. Particulars: for stability in repetition: repeated oxidation-reduction.
Data set [4] is described as follows: Solubility test in heated toluene. Format: physicochemical. The protocol: 500 mL of heated toluene was needed to dissolve 1 g of the compound (2), but 50 mL of heated toluene was needed to dissolve 1 g of the compound (3).
500 mL of heated toluene was needed to dissolve 1 g of the compound (2), but 50 mL of heated toluene was needed to dissolve 1 g of the compound (4).

Data set [5] in a line: Vacuum evaporation temperature test with HPLC of boat residual. It is filed as physicochemical. Particulars: for purity of residual on the vacuum evaporation boat after vacuum evaporation / purity of residual on the vacuum evaporation boat before vacuum evaporation: HPLC; for purity of residual on the vacuum evaporation boat after vacuum evaporation: after vacuum evaporation (thermal stability); for temperature needed to obtain an evaporation rate of 5 Å/second: vacuum evaporation. Here is the method:
(Vacuum Evaporation Temperature Test)
as §2, §3

Turning to `Cc1ccc(N(c2cc(N(c3ccc(C)cc3)c3cccc4ccccc34)cc(N(c3ccc(C)cc3)c3cccc4ccccc34)c2)c2cccc3ccccc23)cc1` [p-MTPNAB, 1,3,5-tris(N-(p-methylphenyl)-N-(1-naphthyl))-amino benzene], the glass transition temperature in data set [1] is 87 °C.
On to `Cc1ccc(N(c2ccc(C)cc2)c2cc(N(c3ccc(-c4ccccc4)cc3)c3ccc(-c4ccccc4)cc3)cc(N(c3ccc(-c4ccccc4)cc3)c3ccc(-c4ccccc4)cc3)c2)cc1` [compound (4), N,N,N′,N′-tetrakis(4-biphenylyl)-N″,N″-bis(4-methylphenyl)benzene-1,3,5-triamine], for which the “glass transition temperature (Tg)” value in data set [2] was found to be 133 °C. In data set [3], the decomposition temperature was 498 °C and the “temperature at which decomposition starts” value stood at 498 °C. Moreover, in the data set “Cyclic voltammetry (CV)”, the oxidation potential is reported as 0.54 V (vs. Ag/Ag^+), the “reversibility of oxidation-reduction process” value is “excellent” and the stability in repetition entry was “good”. Also, in data set [4], the “heated toluene needed to dissolve 1 g of the compound” value (“heated toluene needed to dissolve 1 g” below) was 50 mL. Also, in data set [5], the “purity of residual on the vacuum evaporation boat after vacuum evaporation” value (“purity of residual … after vacuum evaporation” for short) stood at 99.64%, the “purity of residual on the vacuum evaporation boat before vacuum evaporation” value was determined as 99.30% and the “temperature needed to obtain an evaporation rate of 5 Å/second” value (“temperature needed” below) turned out to be 340 °C.
Take `Cc1ccc(-c2ccc(N(c3ccc(C)cc3)c3cc(N(c4ccc(C)cc4)c4ccc(-c5ccc(C)cc5)cc4)cc(N(c4ccc(C)cc4)c4ccc(-c5ccc(C)cc5)cc4)c3)cc2)cc1` [compound (1), 1,3,5-tris(N-(4′-methyl-4-biphenylyl)-N-(4-methylphenyl)amino)benzene, reference compound]: the “glass transition temperature (Tg)” value in data set [2] turned out to be 103 °C.
As for `Cc1ccc(-c2ccc(N(c3ccc(-c4ccc(C)cc4)cc3)c3cc(N(c4ccc(C)cc4)c4ccc(C)cc4)cc(N(c4ccc(-c5ccc(C)cc5)cc4)c4ccc(-c5ccc(C)cc5)cc4)c3)cc2)cc1` [compound (3), N,N,N′,N′-tetrakis(4′-methyl-4-biphenylyl)-N″,N″-bis(4-methylphenyl)benzene-1,3,5-triamine], in data set [2], the “glass transition temperature (Tg)” value is 179 °C. Further, in data set [3], the decomposition temperature was 478 °C and the “temperature at which decomposition starts” value amounted to 430 °C. For the same molecule, in “Cyclic voltammetry (CV)”, the oxidation potential is reported as 0.52 V (vs. Ag/Ag^+), the “reversibility of oxidation-reduction process” value was “excellent” and the stability in repetition result is reported as “good”. Also, in data set [4], the “heated toluene needed to dissolve 1 g” value stood at 50 mL. For the same molecule, in data set [5], the “purity of residual … after vacuum evaporation” value turned out to be 100.00%, the “purity of residual on the vacuum evaporation boat before vacuum evaporation” value worked out at 100.00% and the “temperature needed” value came out at 350 °C.
In the case of `Cc1ccc(-c2ccc(N(c3ccc(-c4ccc(C)cc4)cc3)c3cc(N(c4ccc(-c5ccc(C)cc5)cc4)c4ccc(-c5ccc(C)cc5)cc4)cc(N(c4ccc(-c5ccc(C)cc5)cc4)c4ccc(-c5ccc(C)cc5)cc4)c3)cc2)cc1` [compound (2), 1,3,5-tris(N,N-bis(4′-methyl-4-biphenylyl)amino)benzene, reference compound], the “glass transition temperature (Tg)” value in data set [2] is “no glass transition temperature”. Further, in data set [3], the “temperature at which decomposition starts” value amounted to 412 °C. In data set [4], the “heated toluene needed to dissolve 1 g” value worked out at 500 mL. Also, in data set [5], the “purity of residual … after vacuum evaporation” value came to 95.87%, the “purity of residual on the vacuum evaporation boat before vacuum evaporation” value was determined as 99.03% and the “temperature needed” value was determined as 415 °C.
As to `Cc1ccc(N(c2ccc(-c3ccccc3)cc2)c2cc(N(c3ccc(C)cc3)c3ccc(-c4ccccc4)cc3)cc(N(c3ccc(C)cc3)c3ccc(-c4ccccc4)cc3)c2)cc1` [p-MTPBAB, 1,3,5-tris(N-(p-methylphenyl)-N-(4-biphenylyl)amino)benzene], the glass transition temperature in data set [1] is 98 °C.
